# Patent publication US20190112598A1, “Methods and Systems of Cell-Free Enzyme Discovery and Optimization” (President and Fellows of Harvard College, priority 2016, published 2019)
# Biological target: T1, AcuR (Cereibacter sphaeroides, UniProt Q3J6K8)
# T1 construct: made in house; host or cells: cell-free expression reaction (NEB P/N E6800 components A and B) from T7-promoter linear dsDNA, made in the assay well itself
# T1 sequence (Q3J6K8 1-219): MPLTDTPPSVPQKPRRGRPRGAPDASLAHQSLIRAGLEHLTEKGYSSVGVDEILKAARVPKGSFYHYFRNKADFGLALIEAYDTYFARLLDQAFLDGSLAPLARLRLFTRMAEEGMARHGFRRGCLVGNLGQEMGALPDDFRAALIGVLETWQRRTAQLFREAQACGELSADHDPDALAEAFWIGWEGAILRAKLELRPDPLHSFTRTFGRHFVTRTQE
# Assay: Cell-free observation of acrylate: AcuR sensor with GFP reporter in a cell-free expression reaction
# Format: biochemical
# Conditions: 0.1 mM sodium acrylate; 37° C.; 395 nm excitation; measured every two minutes for 4 hours; sample without acrylate rose to 260; FIG. 1
# From the text: DNA encoded biological acrylate sensor was used to detect acrylate. AcuR is a transcription factor whose activity is dependent on the concentration of acrylate. A linear dsDNA encoding the acrylate sensor AcuR is combined with a reporter circular plasmid which contained a GFP protein controlled by a promoter regulated by AcuR. Thus, GFP fluorescence is related to the amount of acrylate in the sample.
# In order to obtain an adequate signal-to-noise ratio (SNR), a T7 promoter was used to drive the expression of the sensor to achieve high expression of the sensor protein and ensure outnumbering of the number of reporter promoters, and well controlled expression. Additionally, an E. coli RNAP promoter was used to drive expression on the reporter, as it reduces the level of background signal, and provides with a more accurate control by AcuR.
# Linear DNA amplification: Linear dsDNA containing AcuR was prepared by PCR amplification using primers which contain a T7 promoter, and ribosome binding site (RBS). […]
# The samples were incubated at 37° C., and the fluorescence signal (395 nm excitation, 470 nm […]) of the sample was measured every two minutes for 4 hours.
structure (smiles),measurement,value
C=CC(=O)O [acrylate],increase of fluorescence (GFP reporter signal),750 arbitrary units
